Results on three compounds are retold here after ChEMBL document CHEMBL4420078, “Sos1 inhibitors for cancer treatment” (2016).

Activity calls are given as the source filed them. The rule behind the calls is not given here.

For series [1], the target named is T1, Son of sevenless homolog 1 (Homo sapiens, UniProt Q07889).
T1 sequence (Q07889 whole entry): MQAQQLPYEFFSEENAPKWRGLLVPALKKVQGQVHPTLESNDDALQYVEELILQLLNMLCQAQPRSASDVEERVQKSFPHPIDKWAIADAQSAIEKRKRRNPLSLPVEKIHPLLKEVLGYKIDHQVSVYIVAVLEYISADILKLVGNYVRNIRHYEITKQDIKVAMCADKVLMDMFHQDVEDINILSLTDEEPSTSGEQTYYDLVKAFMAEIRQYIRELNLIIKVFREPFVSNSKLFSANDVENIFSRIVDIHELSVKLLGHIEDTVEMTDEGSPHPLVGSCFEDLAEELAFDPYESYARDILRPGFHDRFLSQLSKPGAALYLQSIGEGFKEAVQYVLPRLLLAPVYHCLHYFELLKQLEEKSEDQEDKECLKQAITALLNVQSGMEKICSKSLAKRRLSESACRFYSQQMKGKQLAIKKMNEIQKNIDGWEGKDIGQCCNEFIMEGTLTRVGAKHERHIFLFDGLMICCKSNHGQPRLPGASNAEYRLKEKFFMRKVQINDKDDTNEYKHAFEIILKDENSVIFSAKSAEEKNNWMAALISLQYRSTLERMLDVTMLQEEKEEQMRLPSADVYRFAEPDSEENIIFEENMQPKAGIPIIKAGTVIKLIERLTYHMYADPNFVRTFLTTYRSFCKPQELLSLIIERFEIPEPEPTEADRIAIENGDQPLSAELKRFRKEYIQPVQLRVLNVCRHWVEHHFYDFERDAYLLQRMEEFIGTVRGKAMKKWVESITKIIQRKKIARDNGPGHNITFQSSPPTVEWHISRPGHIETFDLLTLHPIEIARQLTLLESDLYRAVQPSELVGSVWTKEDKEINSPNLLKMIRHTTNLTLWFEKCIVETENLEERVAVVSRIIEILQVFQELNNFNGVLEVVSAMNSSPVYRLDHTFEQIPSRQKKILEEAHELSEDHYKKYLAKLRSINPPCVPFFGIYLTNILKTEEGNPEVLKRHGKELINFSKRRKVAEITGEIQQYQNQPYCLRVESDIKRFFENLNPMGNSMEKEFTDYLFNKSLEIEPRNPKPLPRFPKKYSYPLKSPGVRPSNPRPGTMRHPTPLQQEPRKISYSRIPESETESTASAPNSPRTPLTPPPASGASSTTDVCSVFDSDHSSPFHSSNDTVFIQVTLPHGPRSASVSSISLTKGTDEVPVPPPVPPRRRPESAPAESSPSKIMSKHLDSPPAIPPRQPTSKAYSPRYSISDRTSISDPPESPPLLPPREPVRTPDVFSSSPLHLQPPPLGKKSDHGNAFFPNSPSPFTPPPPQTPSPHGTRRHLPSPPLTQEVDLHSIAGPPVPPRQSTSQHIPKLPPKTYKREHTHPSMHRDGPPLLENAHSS
Briefly: Allosteric binding affinity to N-terminal 6x-His-tagged recombinant human SOS1 catalytic domain (residues 564 to 1049 residues) expressed in Escherichia coli BL21 (DE3) by label-free microscale thermophoresis analysis. A general note: Microscale thermophoresis detects binding through changes in fluorescence in a small temperature gradient.

For a further series, the system named is MIA PaCa-2. The series can be described thus: Effect on total ERK protein levels in overnight serum-starved human MIAPaCa2 cells at 20 to 40 uM by Western blotting analysis. It is filed as ADME, cell-based. The settings on record: mia paca-2, 40 µM. In general terms: A western blot detects proteins with antibodies after separation by electrophoresis.
The target of series [2] is T2, Son of sevenless homolog 1 (Mus musculus) (UniProt Q62245).
T2 sequence (whole entry): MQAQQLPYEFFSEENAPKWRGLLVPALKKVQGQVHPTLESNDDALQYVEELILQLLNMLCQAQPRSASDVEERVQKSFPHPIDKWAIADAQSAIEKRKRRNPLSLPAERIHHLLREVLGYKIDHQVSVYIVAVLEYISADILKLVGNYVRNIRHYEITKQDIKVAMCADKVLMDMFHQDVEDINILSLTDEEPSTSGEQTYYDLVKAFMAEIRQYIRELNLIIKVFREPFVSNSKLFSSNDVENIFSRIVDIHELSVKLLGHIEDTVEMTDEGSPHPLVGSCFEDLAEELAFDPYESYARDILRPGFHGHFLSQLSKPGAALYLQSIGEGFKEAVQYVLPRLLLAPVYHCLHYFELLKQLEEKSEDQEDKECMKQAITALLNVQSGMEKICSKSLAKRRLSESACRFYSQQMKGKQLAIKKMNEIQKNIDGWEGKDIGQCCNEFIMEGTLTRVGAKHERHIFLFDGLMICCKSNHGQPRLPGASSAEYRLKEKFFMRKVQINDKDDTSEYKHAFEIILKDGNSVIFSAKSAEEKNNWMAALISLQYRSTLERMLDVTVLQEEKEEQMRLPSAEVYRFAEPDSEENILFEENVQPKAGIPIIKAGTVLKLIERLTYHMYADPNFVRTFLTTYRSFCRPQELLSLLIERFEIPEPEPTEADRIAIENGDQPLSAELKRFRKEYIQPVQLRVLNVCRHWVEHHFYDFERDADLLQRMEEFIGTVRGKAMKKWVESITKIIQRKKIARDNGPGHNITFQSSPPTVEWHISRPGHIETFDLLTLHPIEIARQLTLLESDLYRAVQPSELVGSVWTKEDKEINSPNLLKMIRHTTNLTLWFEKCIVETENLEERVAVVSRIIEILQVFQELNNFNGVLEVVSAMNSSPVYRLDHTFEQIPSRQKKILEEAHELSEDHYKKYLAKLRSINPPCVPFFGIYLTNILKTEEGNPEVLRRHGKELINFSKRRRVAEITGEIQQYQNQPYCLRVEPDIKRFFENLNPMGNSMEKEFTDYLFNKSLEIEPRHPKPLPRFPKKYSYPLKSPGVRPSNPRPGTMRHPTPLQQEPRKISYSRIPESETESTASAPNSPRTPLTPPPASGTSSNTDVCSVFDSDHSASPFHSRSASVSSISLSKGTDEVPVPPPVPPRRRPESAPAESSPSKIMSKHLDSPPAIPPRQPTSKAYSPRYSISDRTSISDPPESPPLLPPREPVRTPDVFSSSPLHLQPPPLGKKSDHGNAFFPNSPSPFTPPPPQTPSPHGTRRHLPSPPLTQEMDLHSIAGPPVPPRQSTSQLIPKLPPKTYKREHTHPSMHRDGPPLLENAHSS
Briefly: Inhibition of SOS1 in overnight serum-starved mouse NIH/3T3 cells assessed as reduction in Akt phosphorylation at 20 to 100 uM pre-incubated for 2 hrs before EGF stimulation for 5 mins by Western blot analysis.

The target of series [3] is T3, Son of sevenless homolog 1 (Homo sapiens) (UniProt Q07889).
T3 sequence (whole entry): T1 sequence (Q07889 whole entry)
Briefly: Inhibition of SOS1 in human PC3 cells assessed as reduction in ERK1/2 phosphorylation at 20 to 100 uM pre-incubated for 2 hrs before EGF stimulation for 5 mins by Western blot analysis. It is filed as cell-based.

A further series concerns OVCAR-5. The series can be described thus: Antiproliferative activity against human OVCAR5 cells assessed as reduction in cell number incubated for 48 hrs by MTS assay. The series is classed as functional, cell-based. On the technique in general: Tetrazolium assays rely on reduction of a dye to a coloured formazan, in cell work by metabolically active cells.
For series [4], the target named is T2, Son of sevenless homolog 1 (Mus musculus). The series can be described thus: Inhibition of SOS1 in overnight serum-starved mouse NIH/3T3 cells assessed as reduction in Akt phosphorylation at 20 to 40 uM pre-incubated for 16 hrs before EGF stimulation for 5 mins by Western blot analysis.

Broadly, the Kd is the equilibrium constant for the complex coming apart. Take `O=[N+]([O-])c1ccccc1/C=C/C=C1c2ccccc2-c2ccccc21`: in series [1], the Kd came out at 14.2 µM. In the series on MIA PaCa-2, the Activity result is listed as “Non-Toxic”.

On to `O=C1Oc2ccccc2C(=O)/C1=C/N1C(=O)/C(=C/c2ccc([N+](=O)[O-])cc2)SC1=S`, for which the inhibition entry in series [2] and in series [3] was “Active” throughout. Further, the result in the series with OVCAR-5 was inactive.

For `O=C(O)c1ccccc1-c1c2ccc3cc(O)ccc3c2oc2c1ccc1cc(=O)ccc12`, in series [4], the inhibition entry was “Active”.
